Results: patent publication US20220040316A1, “TRIPLE COMBINATION THERAPIES FOR TARGETING MITOCHONDRIA AND KILLING CANCER STEM CELLS” (LUNELLA BIOTECH, INC., priority 2018, published 2022)
Entries after “also recorded” stand apart in the source; their conditions may differ.

Key:
MCF7 cells [1] = experiment: Metabolic flux analysis (Seahorse XFe96, OCR and ECAR); format: cell-based, human
Procedure: Metabolic Flux Analysis: Real-time oxygen consumption rates (OCR) and extracellular acidification rates (ECAR) rates in MCF7 cells were determined using the Seahorse Extracellular Flux (XFe96) analyzer (Seahorse Bioscience, USA). Briefly, 1.5×10^4 cells per well were seeded into XFe96 well cell culture plates, and incubated overnight to allow cell attachment. Then, cells were treated with antibiotics for 72 h. Vehicle-alone control cells were processed in parallel. After 72 hours of incubation, cells were washed in pre-warmed XF assay media (or for OCR measurement, XF assay media supplemented with 10 mM glucose, 1 mM Pyruvate, 2 mM L-glutamine and adjusted at 7.4 pH). Cells were then maintained in 175 μL/well of XF assay media at 37° C., in a non-CO2 incubator for 1 hour. During the incubation time, we loaded 25 μL of 80 mM glucose, 9 μM oligomycin, and 1M 2-deoxyglucose (for ECAR measurement) or 10 μM oligomycin, 9 μM FCCP, 10 μM rotenone, 10 μM antimycin A (for OCR measurement), in XF assay media into the injection ports in the XFe96 sensor cartridge. Measurements were normalized by protein content (Bradford assay). Data sets were analyzed using XFe96 software and GraphPad Prism software, using one-way ANOVA and Student's t-test calculations. All experiments were performed in quintuplicate, three times independently.

[2] = oral administration; cited from earlier work
rat heart = conditions: Vitamin C alone, hypoxia, previous studies; cited from earlier work
U937 cells = U937 cells incubated 15 minutes in media containing 3 μM Vitamin C; cited from earlier work
MCF7 cells [3] = experiment: Mammosphere formation assay (MFE, CSC propagation) in MCF7 cells; format: cell-based, human
Procedure: The data represents mammosphere counts after exposure to a compound, as a percentage of a control. The compounds were tested at concentrations of 1.5 μM, 3 μM, 6 μM, and 12 μM.
Mammosphere Formation Assay: A single cell suspension was prepared using enzymatic (1× Trypsin-EDTA, Sigma Aldrich, #T3924), and manual disaggregation (25 gauge needle). Cells were plated at a density of 500 cells/cm2 in mammosphere medium (DMEM-F12+B27+20 ng/ml EGF+PenStrep) under non-adherent conditions, in culture dishes pre-coated with (2-hydroxyethylmethacrylate) (poly-HEMA, Sigma, #P3932), called “tumor-sphere plates”. Vehicle alone (DMSO) control cells were processed in parallel. Cells were grown for 5 days and maintained in a humidified incubator at 37° C. After 5 days of culture, 3D mammospheres >50 μm were counted using an eye piece (“graticule”), and the percentage of cells plated which formed spheres was calculated and is referred to as percent mammosphere formation (MFE, and was normalized to one (1=100% MSF).

senescent fibroblasts = conditions: azithromycin by itself; cited from earlier work
CSCs = experiment: Inhibition of CSC propagation / CSC inhibition activity (assay not specified); format: cell-based
MCF7 cells [4] = experiment: Cell viability, bulk MCF7 cells; format: cell-based, human; conditions: range of concentrations up to 20 μM
Source text: (§1) Embodiments of therapeutic agents conjugated with targeting signals have shown less toxicity in bulk cancer cells and normal fibroblasts compared to unconjugated therapeutic agents. For example, FIGS. 17A and 17B show cell viability data for doxycycline and the doxycycline-myristate conjugate shown as compound [1], for bulk MCF7 cells and bulk BJ cells, respectively. The data represents cell viability expressed as a percentage of a control. […] Similar behavior has been seen in other therapeutic agents conjugated with targeting signals.

BJ cells = experiment: Cell viability, bulk BJ cells; format: cell-based; conditions: range of concentrations up to 20 μM
Source text: as §1

MCF7 cells [5] = experiment: Cellular retention by green auto-fluorescence; format: cell-based, human; conditions: 10 μM, 72 hours, washed with PBS
Procedure: FIGS. 16A-16C are images comparing the cellular retention of the doxycycline-myristate conjugate, to unconjugated doxycycline. MCF7 cells were cultured in tissue culture media in the presence of either therapeutic agent (i.e., the doxycycline-myristate conjugate or unconjugated doxycycline), at a concentration of 10 μM, for 72 hours. Then, the cells were washed with PBS and any therapeutic agent retained within the cells was visualized by green auto-fluorescence, from the excitation of the tetracycline ring structure. Control cells were incubated with vehicle-alone. […] The original color in the images has been inverted, to […], and the darker regions of FIG. 16B indicate increased cellular retention of the conjugated therapeutic agent.

[6] = test system: breast cancer tumor samples; experiment: ABC trial pilot study: CSC markers in tumor samples after oral doxycycline; format: in vivo, human
Procedure: Doxycycline impacts cancer growth through inhibition of CSC propagation with an IC-50 between 2-to-10 μM. The Antibiotic for Breast Cancer (ABC) trial was conducted at The University of Pisa Hospital. The ABC trial aimed to assess the anti-proliferative and anti-CSC mechanistic actions of doxycycline in early breast cancer patients. […] A pilot study of the ABC trial confirmed that doxycycline treatment successfully decreases the expression of CSC markers in breast cancer tumor samples. […] This represents a 90% positive response rate.

[7] = MCF7 monolayers pre-treated 3-days, doxycycline 1 μM, azithromycin 1 μM, Vitamin C 250 μM as applicable, vs control
[8] = breast cancer patients treated with doxycycline

O=C1O[C@H]([C@@H](O)CO)C(O)=C1O [Vit C, Ascorbic Acid]
ATP production / ATP levels (MCF7 cells [1]; [7]): significantly increased
basal respiration (MCF7 cells [1]; [7]): significantly increased
glycolysis (ECAR) (MCF7 cells [1]; [7]): significantly increased
glycolytic reserve (MCF7 cells [1]; [7]): significantly increased
glycolytic reserve capacity (MCF7 cells [1]; [7]): decreasing
maximal respiration (MCF7 cells [1]; [7]): significantly increased
oxidative mitochondrial metabolism (OCR) (MCF7 cells [1]; [7]): significantly increased; also recorded: increases
increase of mitochondrial ATP production (MCF7 cells [1]; Vitamin C alone, MCF7 cells): up to 2 fold
peak Vitamin C concentration in blood/serum/plasma [2]: about 250
increase of mitochondrial ATP production (rat heart): up to 1.5 fold
Vitamin C level reached in mitochondria (U937 cells): 5 mM

CC[C@H]1OC(=O)[C@H](C)[C@@H](O[C@H]2C[C@@](C)(OC)[C@@H](O)[C@H](C)O2)[C@H](C)[C@@H](O[C@@H]2O[C@H](C)C[C@H](N(C)C)[C@H]2O)[C@](C)(O)C[C@@H](C)CN(C)[C@H](C)[C@@H](O)[C@]1(C)O [azithromycin]
inhibition of mammosphere formation (MCF7 cells [3]; drug alone at low concentrations (0.1 μM and 1 μM)): little or no effect
efficiency of senolytic activity (removal of senescent fibroblasts) (senescent fibroblasts): ~97%

CCCCCCCCCCCCCC(=O)N(C)[C@H]1C[C@@H](C)O[C@@H](O[C@@H]2[C@@H](C)[C@H](O[C@H]3C[C@@](C)(OC)[C@@H](O)[C@H](C)O3)[C@@H](C)C(=O)O[C@H](CC)[C@@](C)(O)[C@H](O)[C@@H](C)N(C)C[C@H](C)C[C@@]2(C)O)[C@@H]1O [compound [15]]
potency and selectivity for CSCs compared to azithromycin alone (CSCs): improved potency and selectivity

CCCCCCCCCCCCCC(=O)Nc1ccc2c(c1O)C(=O)C1=C(O)[C@]3(O)C(=O)C(C(N)=O)=C(O)[C@@H](N(C)C)C3[C@@H](O)C1[C@H]2C (stereo partly drawn) [doxycycline-myristate conjugate, (4S,5S,6R,12aS)-4-(dimethylamino)-3,5,10,12,12a-pentahydroxy-6-methyl-1,11-dioxo-9-(tetradecanoylamino)-4a,5,5a,6-tetrahydro-4H-tetracene-2-carboxamide]
potency in mammosphere assay compared with unconjugated doxycycline (MCF7 cells [3]; MCF7, 1.5 μM, 3 μM, 6 μM and 12 μM, mammosphere counts as percentage of control): more potent
times more potent than doxycycline for inhibiting CSC propagation (MCF7 cells [3]; from IC50 values, MCF7 mammosphere assay): over 5 times
CSC inhibition activity compared with the unconjugated antibiotic (CSCs; fatty acid conjugates (myristate where stated)): better CSC inhibitory properties
toxicity (cell viability as percentage of control) compared with doxycycline (MCF7 cells [4]): less toxic
toxicity (cell viability as percentage of control) compared with doxycycline (BJ cells): less toxic
cellular retention compared to doxycycline alone (MCF7 cells [5]): significantly improved cellular retention

C[C@H]1c2cccc(O)c2C(=O)C2=C(O)[C@]3(O)C(=O)C(C(N)=O)=C(O)[C@@H](N(C)C)[C@@H]3[C@@H](O)[C@@H]21 [doxycycline]
positive response rate (CD44) [6, 8]: 90%
rise in CD44, one patient [6, 8]: 15%
decrease in the stemness marker CD44, post-doxycycline vs pre-doxycycline tumor samples ([6]; early breast cancer patients, short-term pre-operative oral doxycycline): 40%
